Converted amounts (≈) assume the structure as drawn.
Columns and labels:
Assay in all cases: microbe, parasite or virus in culture
[1] = tested on: Xanthomonas oryzae pv. oryzae Xoo; settings: read-out: EC50 (mg/L) Xoo
[2] = tested on: Xanthomonas oryzae pv. oryzicola Xoc; settings: read-out: EC50 (mg/L) Xoc
[3] = tested on: Xanthomonas oryzae pv. oryzae Xoo
[4] = tested on: Xanthomonas oryzae pv. oryzicola Xoc
[5] = read-out: Inhibition (%) 10 (mg/L)
[6] = read-out: Inhibition (%) 50 (mg/L)

SMILES: CS(=O)(=O)c1nnc(CNC(=O)c2ccc(F)cc2)o1 [compound 26, 4-fluoro-N-((5-(methylsulfonyl)-1,3,4-oxadiazol-2-yl)methyl)benzamide]
- EC50 [1]: 0.61 ± 0.03 mg/L (≈ 2.04 µM)
- EC50 [2]: 2.3 ± 0.06 mg/L (≈ 7.69 µM)
- inhibition at 10 µg/mL [3, 5]: 99.4 ± 0.2%
- inhibition at 50 µg/mL [3, 6]: 99.1 ± 0.1%
- inhibition at 10 µg/mL [4, 5]: 98.3 ± 1.6%
- inhibition at 50 µg/mL [4, 6]: 99 ± 1%

Source: PMC8657855 (International Journal of Molecular Sciences, 2021)
